Literature values in US20070254006A1, “Medical Devices and Coatings with Non-Leaching Antimicrobial Peptides” (Massachusetts Institute of Technology, priority 2006, published 2007).

Tests used:
avidin and streptavidin = conditions: interaction with avidin and streptavidin
Staphylococcus aureus = conditions: Dacron graft soaked in peptide solution before implanting in a rat, bacterial challenge

| Molecule | Ka (avidin and streptavidin) | incidence of device colonization and infection (Staphylococcus aureus) |
| --- | --- | --- |
| O=C(O)CCCC[C@@H]1SC[C@@H]2NC(=O)N[C@@H]21 [Biotin] | 10^15 M^−1 | – |
| dermaseptin | – | reduces the incidence of device colonization and infection |
